Test results from US20160009693A1, “HERBICIDAL COMPOUNDS” (SYNGENTA LIMITED, priority 2013, published 2016).

Experiments:
Format in all cases: in vivo
Settings in all cases: applied at 1000 g/h, evaluated after 13 days
Solanum nigrum (SOLNI) [1] = experiment: Herbicidal glasshouse test, post-emergence, SOLNI
[2] = test system: Ipomoea hederacea (IPOHE); experiment: Herbicidal glasshouse test, post-emergence, IPOHE
[3] = test system: Ipomoea hederacea (IPOHE); experiment: Herbicidal glasshouse test, pre-emergence, IPOHE
[4] = test system: Amaranthus retoflexus (AMARE); experiment: Herbicidal glasshouse test, post-emergence, AMARE
In short: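 This post-emergence glasshouse test used AMARE plants raised in standard soil for 8 days under controlled conditions (24/16° C. day/night, 14 hours light, 65% humidity). Foliage was sprayed with formulated compound in acetone/water (50:50) containing 0.5% Tween 20. Plants were then watered twice daily, and after 13 days percentage damage was rated on a five point scale.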

[5] = test system: Echinochloa crus-galli (ECHCG); experiment: Herbicidal glasshouse test, pre-emergence, ECHCG
In short: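 In this pre-emergence glasshouse test, ECHCG seeds sown in pots of standard soil were sprayed one day after sowing with the test material in acetone/water (50:50) containing 0.5% Tween 20. Plants were kept at 24/16° C., 14 hours light, 65% humidity, and watered twice daily. Percentage damage was rated after 13 days on a 1–5 scale.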

[6] = test system: Amaranthus retoflexus (AMARE); experiment: Herbicidal glasshouse test, pre-emergence, AMARE
In short: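 This pre-emergence glasshouse herbicide test used Amaranthus retoflexus sown in standard soil. After one day of cultivation, an aqueous spray made from the technical ingredient in 50:50 acetone/water with 0.5% Tween 20 was applied. Pots stayed at 24/16° C., 14 hours light, 65% humidity, with twice-daily watering. Damage was rated on a five point scale (1=0-19% up to 5=80-100%).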

Setaria faberi (SETFA) [7] = experiment: Herbicidal glasshouse test, pre-emergence, SETFA
[8] = test system: Alopecurus myosuroides (ALOMY); experiment: Herbicidal glasshouse test, pre-emergence, ALOMY
Solanum nigrum (SOLNI) [9] = experiment: Herbicidal glasshouse test, pre-emergence, SOLNI
In short: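 This pre-emergence glasshouse herbicide test used Solanum nigrum sown in standard soil. One day after sowing, pots were sprayed with the compound in acetone/water (50:50) with 0.5% Tween 20. They were then grown at 24/16° C., with 14 hours light and 65% humidity, and watered twice daily. Percentage damage was scored after 13 days on a five point scale, where 5=80-100% and 1=0-19%.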

[10] = test system: Echinochloa crus-galli (ECHCG); experiment: Herbicidal glasshouse test, post-emergence, ECHCG
In short: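 In this post-emergence glasshouse test, barnyard grass (ECHCG) was cultivated for 8 days under controlled conditions (24/16° C. day/night, 14 hours light, 65% humidity). It was then sprayed with an aqueous solution of the technical compound in acetone / water (50:50) with 0.5% Tween 20. Plants were kept under the same conditions and watered twice daily. After 13 days, percentage damage was rated on a five point scale (5=80-100%; 1=0-19%).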

[11] = test system: Alopecurus myosuroides (ALOMY); experiment: Herbicidal glasshouse test, post-emergence, ALOMY
Setaria faberi (SETFA) [12] = experiment: Herbicidal glasshouse test, post-emergence, SETFA
In short: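 This post-emergence glasshouse herbicide test used potted Setaria faberi. Plants were cultivated for 8 days under controlled conditions (24/16° C. day/night, 14 hours light, 65% humidity) and then treated with an aqueous spray made from an acetone/water (50:50) solution containing 0.5% Tween 20. After 13 days of further growth with twice-daily watering, damage was rated on a five point scale (5=80-100%; 1=0-19%).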

Cc1cccc(-n2c(=O)c(C(=O)Nc3nnnn3C)nn(C)c2=O)c1 [Compound 1.025]
5 (5=80-100%): POST Application SOLNI, percentage damage (five point scale) (Solanum nigrum (SOLNI) [1]) | POST Application IPOHE, percentage damage (five point scale) [2] | PRE Application IPOHE, percentage damage (five point scale) [3] | POST Application AMARE, percentage damage (five point scale) [4] | PRE Application ECHCG, percentage damage (five point scale) [5] | PRE Application AMARE, percentage damage (five point scale) [6] | PRE Application SETFA, percentage damage (five point scale) (Setaria faberi (SETFA) [7]) | PRE Application ALOMY, percentage damage (five point scale) [8] | PRE Application SOLNI, percentage damage (five point scale) (Solanum nigrum (SOLNI) [9]) | POST Application ECHCG, percentage damage (five point scale) [10] | POST Application ALOMY, percentage damage (five point scale) [11] | POST Application SETFA, percentage damage (five point scale) (Setaria faberi (SETFA) [12])

Cc1cc(C)cc(-n2c(=O)c(C(=O)Nc3nnnn3C)nn(C)c2=O)c1 [Compound 1.038]
5 (5=80-100%): POST Application SOLNI, percentage damage (five point scale) (Solanum nigrum (SOLNI) [1]) | POST Application IPOHE, percentage damage (five point scale) [2] | PRE Application IPOHE, percentage damage (five point scale) [3] | POST Application AMARE, percentage damage (five point scale) [4] | PRE Application ECHCG, percentage damage (five point scale) [5] | PRE Application AMARE, percentage damage (five point scale) [6] | PRE Application SETFA, percentage damage (five point scale) (Setaria faberi (SETFA) [7]) | PRE Application ALOMY, percentage damage (five point scale) [8] | PRE Application SOLNI, percentage damage (five point scale) (Solanum nigrum (SOLNI) [9]) | POST Application ECHCG, percentage damage (five point scale) [10] | POST Application ALOMY, percentage damage (five point scale) [11] | POST Application SETFA, percentage damage (five point scale) (Setaria faberi (SETFA) [12])

COc1cc(Cn2c(=O)c(C(=O)Nc3nnnn3C)nn(C)c2=O)cc(Cl)n1 [Compound 1.070]
2 (2=20-39%): POST Application SETFA, percentage damage (five point scale) (Setaria faberi (SETFA) [12])
1 (1=0-19%): PRE Application SETFA, percentage damage (five point scale) (Setaria faberi (SETFA) [7])
5 (5=80-100%): POST Application SOLNI, percentage damage (five point scale) (Solanum nigrum (SOLNI) [1]) | POST Application IPOHE, percentage damage (five point scale) [2] | PRE Application IPOHE, percentage damage (five point scale) [3] | POST Application AMARE, percentage damage (five point scale) [4] | PRE Application ECHCG, percentage damage (five point scale) [5] | PRE Application AMARE, percentage damage (five point scale) [6] | PRE Application ALOMY, percentage damage (five point scale) [8] | PRE Application SOLNI, percentage damage (five point scale) (Solanum nigrum (SOLNI) [9]) | POST Application ECHCG, percentage damage (five point scale) [10] | POST Application ALOMY, percentage damage (five point scale) [11]

C=CCn1nc(C(=O)Nc2nnnn2C)c(=O)n(-c2cccc(F)c2)c1=O [Compound 1.007]
5 (5=80-100%): POST Application SOLNI, percentage damage (five point scale) (Solanum nigrum (SOLNI) [1]) | POST Application IPOHE, percentage damage (five point scale) [2] | PRE Application IPOHE, percentage damage (five point scale) [3] | POST Application AMARE, percentage damage (five point scale) [4] | PRE Application ECHCG, percentage damage (five point scale) [5] | PRE Application AMARE, percentage damage (five point scale) [6] | PRE Application SOLNI, percentage damage (five point scale) (Solanum nigrum (SOLNI) [9]) | POST Application ECHCG, percentage damage (five point scale) [10] | POST Application ALOMY, percentage damage (five point scale) [11] | POST Application SETFA, percentage damage (five point scale) (Setaria faberi (SETFA) [12])
2 (2=20-39%): PRE Application ALOMY, percentage damage (five point scale) [8]
1 (1=0-19%): PRE Application SETFA, percentage damage (five point scale) (Setaria faberi (SETFA) [7])

Cn1nnnc1NC(=O)c1nn(C)c(=O)n(Cc2ccc([N+](=O)[O-])cc2)c1=O [Compound 1.071]
5 (5=80-100%): POST Application SOLNI, percentage damage (five point scale) (Solanum nigrum (SOLNI) [1]) | PRE Application IPOHE, percentage damage (five point scale) [3] | POST Application AMARE, percentage damage (five point scale) [4] | PRE Application ECHCG, percentage damage (five point scale) [5] | PRE Application AMARE, percentage damage (five point scale) [6] | PRE Application ALOMY, percentage damage (five point scale) [8] | PRE Application SOLNI, percentage damage (five point scale) (Solanum nigrum (SOLNI) [9])
1 (1=0-19%): POST Application SETFA, percentage damage (five point scale) (Setaria faberi (SETFA) [12])
2 (2=20-39%): POST Application IPOHE, percentage damage (five point scale) [2] | PRE Application SETFA, percentage damage (five point scale) (Setaria faberi (SETFA) [7])
4 (4=60-79%): POST Application ECHCG, percentage damage (five point scale) [10] | POST Application ALOMY, percentage damage (five point scale) [11]

CCCCn1c(=O)c(C(=O)Nc2nncn2C)nn(C)c1=O [Compound 6.003]
4 (4=60-79%): POST Application SOLNI, percentage damage (five point scale) (Solanum nigrum (SOLNI) [1]) | PRE Application ECHCG, percentage damage (five point scale) [5]
2 (2=20-39%): POST Application SETFA, percentage damage (five point scale) (Setaria faberi (SETFA) [12])
1 (1=0-19%): PRE Application ALOMY, percentage damage (five point scale) [8] | POST Application ECHCG, percentage damage (five point scale) [10]
3 (3=40-59%): POST Application ALOMY, percentage damage (five point scale) [11]
5 (5=80-100%): POST Application IPOHE, percentage damage (five point scale) [2] | PRE Application IPOHE, percentage damage (five point scale) [3] | POST Application AMARE, percentage damage (five point scale) [4] | PRE Application AMARE, percentage damage (five point scale) [6] | PRE Application SETFA, percentage damage (five point scale) (Setaria faberi (SETFA) [7]) | PRE Application SOLNI, percentage damage (five point scale) (Solanum nigrum (SOLNI) [9])

C=CCn1nc(C(=O)Nc2nnnn2C)c(=O)n(-c2ccc(F)cc2)c1=O [Compound 1.011]
5 (5=80-100%): POST Application SOLNI, percentage damage (five point scale) (Solanum nigrum (SOLNI) [1]) | POST Application IPOHE, percentage damage (five point scale) [2] | PRE Application IPOHE, percentage damage (five point scale) [3] | POST Application AMARE, percentage damage (five point scale) [4] | PRE Application ECHCG, percentage damage (five point scale) [5] | PRE Application AMARE, percentage damage (five point scale) [6] | PRE Application SOLNI, percentage damage (five point scale) (Solanum nigrum (SOLNI) [9]) | POST Application ECHCG, percentage damage (five point scale) [10] | POST Application ALOMY, percentage damage (five point scale) [11] | POST Application SETFA, percentage damage (five point scale) (Setaria faberi (SETFA) [12])
4 (4=60-79%): PRE Application SETFA, percentage damage (five point scale) (Setaria faberi (SETFA) [7]) | PRE Application ALOMY, percentage damage (five point scale) [8]

Cn1nnnc1NC(=O)c1nn(C)c(=O)n(Cc2ccc(Cl)c(Cl)c2)c1=O [Compound 1.068]
2 (2=20-39%): PRE Application ECHCG, percentage damage (five point scale) [5]
4 (4=60-79%): POST Application ECHCG, percentage damage (five point scale) [10]
3 (3=40-59%): PRE Application ALOMY, percentage damage (five point scale) [8] | POST Application ALOMY, percentage damage (five point scale) [11]
1 (1=0-19%): PRE Application IPOHE, percentage damage (five point scale) [3] | PRE Application SETFA, percentage damage (five point scale) (Setaria faberi (SETFA) [7]) | POST Application SETFA, percentage damage (five point scale) (Setaria faberi (SETFA) [12])
5 (5=80-100%): POST Application SOLNI, percentage damage (five point scale) (Solanum nigrum (SOLNI) [1]) | POST Application IPOHE, percentage damage (five point scale) [2] | POST Application AMARE, percentage damage (five point scale) [4] | PRE Application AMARE, percentage damage (five point scale) [6] | PRE Application SOLNI, percentage damage (five point scale) (Solanum nigrum (SOLNI) [9])

Cc1cc(C)cc(Cn2c(=O)c(C(=O)Nc3nnnn3C)nn(C)c2=O)c1 [Compound 1.074]
4 (4=60-79%): PRE Application ECHCG, percentage damage (five point scale) [5] | POST Application ALOMY, percentage damage (five point scale) [11]
2 (2=20-39%): POST Application IPOHE, percentage damage (five point scale) [2]
1 (1=0-19%): PRE Application SETFA, percentage damage (five point scale) (Setaria faberi (SETFA) [7]) | POST Application SETFA, percentage damage (five point scale) (Setaria faberi (SETFA) [12])
3 (3=40-59%): PRE Application IPOHE, percentage damage (five point scale) [3] | POST Application ECHCG, percentage damage (five point scale) [10]
5 (5=80-100%): POST Application SOLNI, percentage damage (five point scale) (Solanum nigrum (SOLNI) [1]) | POST Application AMARE, percentage damage (five point scale) [4] | PRE Application AMARE, percentage damage (five point scale) [6] | PRE Application ALOMY, percentage damage (five point scale) [8] | PRE Application SOLNI, percentage damage (five point scale) (Solanum nigrum (SOLNI) [9])

Cn1cnnc1NC(=O)c1nn(C)c(=O)n(-c2ccccc2)c1=O [Compound 6.001]
1 (1=0-19%): PRE Application IPOHE, percentage damage (five point scale) [3] | PRE Application ECHCG, percentage damage (five point scale) [5] | PRE Application ALOMY, percentage damage (five point scale) [8]
3 (3=40-59%): POST Application ALOMY, percentage damage (five point scale) [11] | POST Application SETFA, percentage damage (five point scale) (Setaria faberi (SETFA) [12])
5 (5=80-100%): POST Application SOLNI, percentage damage (five point scale) (Solanum nigrum (SOLNI) [1]) | POST Application IPOHE, percentage damage (five point scale) [2] | POST Application AMARE, percentage damage (five point scale) [4] | PRE Application AMARE, percentage damage (five point scale) [6] | PRE Application SETFA, percentage damage (five point scale) (Setaria faberi (SETFA) [7]) | PRE Application SOLNI, percentage damage (five point scale) (Solanum nigrum (SOLNI) [9]) | POST Application ECHCG, percentage damage (five point scale) [10]
